# Laboratory results taken from patent US9200006B2, “Protease inhibitors” (MEDIVIR AB, priority 2008, dated 2015).
# Legend:
# [1] = In vivo mouse PK, oral administration (FIG. 1); set-up: species or system male C57Bl mice; conditions: orally administered, 60 μmol/kg in 1% Methocel A4C vehicle
# Excerpt: Various embodiments of the invention will now be described by way of illustration only with reference to the following Examples and FIG. 1 which depicts plasma concentration against time for male C57Bl mice orally administered a compound of the invention or a compound of the prior art.
# [2] = reference markers for the permeability assay; cited from earlier work
# [3] = Metabolic stability in whole blood; format: in vitro ADME; conditions: worked out from whole blood CLint
# Description: Compounds of the invention and the indicated comparative examples were tested for metabolic stability in a cytosol assay in which the compounds were incubated with commercially available human hepatic cytosol fractions and the disappearance of the compound monitored by HPLC or LC/MS. Pooled human liver cytosol fractions are less likely to represent outlier individuals than blood from a single individual and can be stored frozen, unlike whole blood. The cytosol assay thus provides a consistent assay testbed as a guide to the stability of a compound in the in vivo environment, such as when exposed to whole blood.
# In short, test compounds (2 μM) are incubated in pooled human liver cytosol (Xenotech LLC Lenexa US, 1 mg/mL protein in 0.1 M phosphate buffer, pH 7.4) at 37° centigrade over a one hour period. The incubations are initiated by the addition of 1 mM NADPH co-factor. Timed sub-samples were taken at 0, 20, 40 and 60 minutes and “crash precipitated” by the addition of 3 volumes of ice-cold acetonitrile. The samples were centrifuged at reduced temperature and the supernatants were separated and analyzed by LC-MS-MS.
# Alternatively, an analogous stability assay is carried out in human or monkey whole blood and/or commercially available liver microsomes, such as XEN 025.
SMILES,% absorption in man [2],also measured
"C#C[C@@H]1CN(C(=O)[C@H](CC(C)C)NC(=O)c2ccc(-c3nc(N4CCN(C)CC4)sc3F)cc2)[C@@H]2C(=O)CO[C@H]12 [Example 2, N-[1-6-(ethynyl-3-oxo-hexahydro-furo[3,2-b]pyrrole-4-carbonyl)-3-methyl-butyl]-4-[5-fluoro-2-(4-methyl-piperazin-1-yl)thiazol-4-yl]-benzamide]",,in vivo exposure (Cmax or AUC) compared with the prior art compound [1]: very much greater
N[C@@H](Cc1ccccc1)C(=O)O [L-Phenylalanine],100%,
OC[C@@H](O)[C@@H](O)[C@H](O)[C@H](O)CO [Mannitol],16%,
CN(Cc1cnc2nc(N)nc(N)c2n1)c1ccc(C(=O)N[C@@H](CCC(=O)O)C(=O)O)cc1 [Methotrexate],20%,
CC(C)C[C@H](NC(=O)c1ccc(-c2csc(N3CCN(C)CC3)n2)cc1)C(=O)N1C[C@@H](C)[C@H]2OCC(=O)[C@H]21 [comparative example],,estimated / calculated whole blood half life [3]: little over an hour
